Assay results: paper PMC5835390 (Chemical communications (Cambridge, England), 2018)

Key:
[1] = chromatographic, C18 column, same gradient; cited from earlier work
carboxypeptidase = assay: Carboxypeptidase treatment of albusnodin; assay type: in vitro ADME; conditions: reports on threaded state, Fig. S9

| Resistance to carboxypeptidase cleavage (carboxypeptidase) | Substance | HPLC elution time (used as indication of polarity) [1] |
| --- | --- | --- |
| – | microcin J25 (GGAGHVPEYFVGIGTPISFYG; not fully specified; Microcin J25 lasso peptide; UniProt Q9X2V7 38-58, looked up) | around 17 minutes |
| – | astexin-1 | around 14 minutes |
| resistant to carboxypeptidase cleavage | albusnodin | – |
| – | astexin-3 | around 14 minutes |
| – | astexin-2 | around 14 minutes |
